According to US5133975A, “Method for in vivo inactivation of blood borne HIV virus using a mixture of ozone and oxygen” (RJH and Company, Inc., priority 1989, dated 1992):

Columns and labels:
herpes simplex = test: remission of herpes lesions in patient (Example 3)
human subjects = conditions: 0.24 ppm for two hours; cited from earlier work
mammals = conditions: overdoses of pure O3; cited from earlier work
mice = conditions: 3 hours of inhalation; cited from earlier work
coxsachie = conditions: in vitro, pure ozone; cited from earlier work
enteroviruses = conditions: in vitro, pure ozone; cited from earlier work
S. aureus = conditions: in vitro, pure ozone; cited from earlier work
Aeromonas hydrophilia = conditions: in vitro, pure ozone; cited from earlier work
coliform = conditions: in vitro, pure ozone; cited from earlier work
poliovirus 2 = conditions: in vitro, pure ozone; cited from earlier work

Nc1nc2c(ncn2COCCO)c(=O)[nH]1 [acyclovir]
herpes lesions during treatment with acyclovir (herpes simplex): had persisted

O=[O+][O-] [ozone]
cell functions (human subjects): inhibition of certain cell functions
enzyme activities (human subjects): wide fluctuations in enzyme activities
respiratory capacity (human subjects): drops in respiratory capacity
signs of overdose (mammals): pulmonary edema and hemorrhaging
LD50 (mice): 22 ppm
inactivation of coxsachie (coxsachie): inactivates
inactivation of enteroviruses (enteroviruses): inactivates
inactivation of S. aureus (S. aureus): inactivates
inactivation of Aeromonas hydrophilia (Aeromonas hydrophilia): inactivates
inactivation of coliform (coliform): inactivates
inactivation of poliovirus 2 (poliovirus 2): inactivates
